For assay [1], the system named is Mus musculus. The experiment in a line: Antidepressant activity in ICR mouse model of chronic unpredictable mild stress assessed as downregulation of neuronal apoptosis by measuring increase in BDNF protein level in hippocampus at 12 mg/kg, ip administered once a day for 1 week post 8 week of chronic unpredictable mild stress and measured after 1 week by Western blot analysis. In kind it is functional, organism-based. The settings on record: time 2.0 weeks.

The subject of assay [2] is Mus musculus. The experiment in a line: Antidepressant activity in ICR mouse model of chronic unpredictable mild stress assessed as reduction in sphingosine-1-phosphate level in cerebral cortex at 12 mg/kg, ip administered once a day for 1 week post 8 week of chronic unpredictable mild stress and measured after 1 week by ELISA. The format is functional, organism-based. The settings on record: time 2.0 weeks.

Assay [3] deals with Mus musculus. The experiment in a line: Antidepressant activity in ICR mouse model of chronic unpredictable mild stress assessed as reduction in sphingosine-1-phosphate level in hippocampus at 12 mg/kg, ip administered once a day for 1 week post 8 week of chronic unpredictable mild stress and measured after 1 week by ELISA. In kind it is functional, organism-based. The settings on record: time 2.0 weeks.

Assay [4] has as its system Mus musculus. Nature of the assay: Antidepressant activity in ICR mouse model of chronic unpredictable mild stress assessed as reduction in sphingomyelin level in cerebral cortex at 12 mg/kg, ip administered once a day for 1 week post 8 week of chronic unpredictable mild stress and measured after 1 week by ELISA. The format is functional, organism-based. The settings on record: time 2.0 weeks.

Assay [5] deals with Mus musculus. The experiment in a line: Antidepressant activity in ICR mouse model of chronic unpredictable mild stress assessed as reduction in oxidative stress by measuring reduction in MDA level in cerebral cortex at 12 mg/kg, ip administered once a day for 1 week post 8 week of chronic unpredictable mild stress and measured after 1 week by ELISA. The format is functional, organism-based. The settings on record: time 2.0 weeks.

Assay [6] concerns Mus musculus. The experiment in a line: Antineuroinflammatory activity in ICR mouse model of chronic unpredictable mild stress assessed as reduction in TNFalpha level in serum at 12 mg/kg, ip administered once a day for 1 week post 8 week of chronic unpredictable mild stress and measured after 1 week by ELISA. The following applies: time 2.0 weeks. The format is functional, organism-based.

Assay [7] has as its system Mus musculus. The experiment in a line: Antineuroinflammatory activity in ICR mouse model of chronic unpredictable mild stress assessed as reduction in IL-1beta level in serum at 12 mg/kg, ip administered once a day for 1 week post 8 week of chronic unpredictable mild stress and measured after 1 week by ELISA. In kind it is functional, organism-based. The following applies: time 2.0 weeks.

The subject of assay [8] is Mus musculus. Nature of the assay: Antineuroinflammatory activity in ICR mouse model of chronic unpredictable mild stress assessed as reduction in IL-6 level in serum at 12 mg/kg, ip administered once a day for 1 week post 8 week of chronic unpredictable mild stress and measured after 1 week by ELISA. The format is functional, organism-based. The following applies: time 2.0 weeks.

For assay [9], the system named is Mus musculus. The experiment in a line: In vivo inhibition of ASM in ICR mouse model of chronic unpredictable mild stress assessed as increase in 5-HT uptake in hippocampus at 12 mg/kg, ip administered once a day for 1 week post 8 week of chronic unpredictable mild stress and measured after 1 week by ELISA. The format is functional, organism-based. The following applies: time 2.0 weeks.

Assay [10] deals with T1, Sphingomyelin phosphodiesterase (Homo sapiens, UniProt P17405).
T1 sequence (P17405 whole entry): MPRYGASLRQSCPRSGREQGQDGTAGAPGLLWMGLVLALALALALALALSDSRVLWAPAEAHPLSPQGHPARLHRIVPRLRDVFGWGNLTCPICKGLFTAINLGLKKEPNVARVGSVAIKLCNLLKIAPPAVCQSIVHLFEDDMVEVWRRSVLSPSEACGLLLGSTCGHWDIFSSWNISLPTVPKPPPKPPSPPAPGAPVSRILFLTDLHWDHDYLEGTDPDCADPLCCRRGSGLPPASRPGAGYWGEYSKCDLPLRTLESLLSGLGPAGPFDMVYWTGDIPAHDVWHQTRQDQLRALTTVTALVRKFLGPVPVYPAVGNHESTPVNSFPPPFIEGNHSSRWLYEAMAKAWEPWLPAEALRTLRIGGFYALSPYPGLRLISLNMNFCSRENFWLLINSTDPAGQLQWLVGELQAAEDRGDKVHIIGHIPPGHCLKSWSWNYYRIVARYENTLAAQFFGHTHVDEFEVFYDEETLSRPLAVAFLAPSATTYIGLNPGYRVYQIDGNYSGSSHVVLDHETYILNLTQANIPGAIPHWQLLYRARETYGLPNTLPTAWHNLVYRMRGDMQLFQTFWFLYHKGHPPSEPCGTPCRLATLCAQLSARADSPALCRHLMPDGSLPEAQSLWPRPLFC
Nature of the assay: Inhibition of human recombinant ASM (His62 to Pro628 residues) using HMU-PC as substrate incubated for 2 hrs by fluorescence based analysis.

Structures are written as SMILES. Calls of active or inactive are those of the source. No cut-off for these calls is given here.

In the case of `CNCCC(Oc1ccc(C(F)(F)F)cc1)c1ccccc1` (stereo not given), the outcome in the assay on Mus musculus [1], in the assay on Mus musculus [2], in the assay with Mus musculus [3], in the assay with Mus musculus [4], in the assay on Mus musculus [5] and in the assay with Mus musculus [6] was Active. Besides, the outcome in the assay on Mus musculus [7] and with Mus musculus [8] was Active. For the same compound, in the assay with Mus musculus [9], the inhibition entry is “Active”.

Broadly, the IC50 is the concentration at which inhibition is half-maximal. In the case of `CCCCCCCCCCOc1cc(C(=O)NO)ccc1OC`, in [10], the IC50 came out at 1200 nM.
